Data from patent publication US20240261268A1, “METHODS OF SLOWING AN INCREASE IN BRAIN VENTRICULAR VOLUME” (VANDA PHARMACEUTICALS INC., priority 2022, published 2024).

What was measured:
[1] = other S1P receptor modulators, given for comparison; cited from earlier work
[2] = tested on: adult subjects with relapsing MS; experiment: Phase III study: premature treatment discontinuation and deaths; type: in vivo; details: ponesimod 20 mg, teriflunomide 14 mg
Protocol: A total of 1468 subjects were screened. Of those, 1133 subjects were randomized (567 to ponesimod 20 mg and 566 to teriflunomide 14 mg) across 162 sites in 28 countries, and 1131 subjects received at least one dose of study drug. The disposition of subjects is summarized in Table 1 and a summary of reasons (primary reason) for treatment discontinuation are shown in Table 2. Overall treatment and study discontinuation were balanced across both treatment arms. A total of 6.5% and 2.5% of the subjects discontinued due to AEs or tolerability related reasons in ponesimod 20 mg and teriflunomide 14 mg, respectively, while 1.9% and 4.3% discontinued due to efficacy related reasons. There were 2 deaths reported during the study—both on teriflunomide 14 mg.

[3] = tested on: adult subjects with relapsing MS; experiment: 12-lead ECG heart rate and first-dose monitoring on Day 1; type: in vivo, human
Protocol: The incidence of treatment-emergent heart rate and rhythm (including hypotension) AESIs on Day 1 was higher in the ponesimod 20 mg arm (2.1%) than in the teriflunomide 14 mg arm (0.4%). However, the overall incidence of first dose AESI on Day 1 was low (2.1%) in ponesimod. None of these events were serious nor led to permanent discontinuation of study treatment. Discharge criteria at 4 hours post-dose were met for ca. 99% of subjects. […] ECG HR effect: nadir at 2 hours post-dose (siponimod—3-4 hours, fingolimod—around by 6 hours). Low incidence of low HR outliers (post-dose HR≤40 bpm), all 3 of them with a pre-treatment HR of <55 bpm, which is a known risk factor for post-dose bradycardia with SIP receptor modulators.
The mean heart rate reduction compared to pre-dose reached a maximum for ponesimod 20 mg at 2-hours post dose, −8.7 bpm compared to −1.7 bpm for teriflunomide 14 mg (FIG. 2).

[4] = tested on: adult subjects with relapsing MS; experiment: MRI-based scaled brain ventricular volume (lateral + 3rd ventricle / ICV); type: in vivo, human; details: p<0.001 vs baseline, ponesimod n=428, teriflunomide n=427
Source text: Efficacy variable/timepoint: The endpoint was increase in ventricular volume up to the end of study (EOS). All available data up to EOS, regardless of treatment discontinuation was included (ITT approach).
Ventricular Volume (VV) data were obtained from MRI images from patients that participated in the OPTIMUM study. Data were obtained from those patients who had MRI imagines at baseline week 60 and week 108. One pre-requisite was to select only those patients who had all images completed.
Ventricular volume was estimated from MRI images collected at baseline (BL), week 60 and week 108 for 428 subjects treated with ponesimod and 427 with teriflunomide. Lesions were identified using T2-weighted and Proton Density (PD) MRIs. Ventricles were segmented using lesion-filled T1 images using with the longitudinal stream in FreeSurfer 7. For each subject, scaled ventricular volume (V) was computed as the sum of lateral and 3rd ventricle volumes divided by the intracranial volume (ICV) and expressed as a percentage. Average V (V) and average change in V (ΔV) from baseline at weeks 60 and 108 were compared across treatment arms. Ventricular volumes were correlated with Multiple Sclerosis Functional Composite (MSFC), Paced Auditory Serial Addition Test (PASAT), Average Timed 25 Foot Walk (T25FW), Average 9-Hole Peg Test (9-HPT), Single Digit Modality Test (SDMT), FSIQ-RMS and Expanded Disability Score (EDSS).

[5] = tested on: adult subjects with relapsing MS; experiment: Phase III study ponesimod 20 mg vs teriflunomide 14 mg: treatment-emergent adverse events (Safety Set)
Protocol: A prospective, multicenter, randomized, double-blind, active controlled, parallel-group, phase III, superiority study was conducted.
The treatment period consisted of an up-titration period (from Day 1 to 14) and a maintenance period (Day 15 until EOT).
To reduce the first-dose effect of ponesimod, an up-titration scheme was implemented from Day 1 to Day 14: • Days 1 and 2; 2 mg. • Days 3 and 4; 3 mg. • Days 5 and 6; 4 mg. • Day 7; 5 mg. • Day 8; 6 mg. • Day 9; 7 mg. • Day 10; 8 mg. • Day 11; 9 mg. • Days 12, 13, and 14; 10 mg. • Day 15 until EOT; 20 mg.
The Safety Set (SAF) included all randomized subjects who received at least one dose of study treatment. Subjects were analyzed based on actual treatment taken, not randomized treatment.

[6] = Day 1, ponesimod N=565, teriflunomide N=566, Safety Set
[7] = ponesimod 20 mg N=565, teriflunomide 14 mg N=566, Safety Set
[8] = ponesimod 20 mg, teriflunomide 14 mg
[9] = treatment-emergent, ponesimod 20 mg N=565, teriflunomide 14 mg N=566, Safety Set

## CCCCCCCCc1ccc(CCC(N)(CO)CO)cc1 [fingolimod]
[1]
  ECG HR effect: time of nadir post-dose: ~6 h

## CCc1cc(/C(C)=N/OCc2ccc(C3CCCCC3)c(C(F)(F)F)c2)ccc1CN1CC(C(=O)O)C1 [siponimod]
[1]
  ECG HR effect: time of nadir post-dose: 3 to 4 h

## C/C(O)=C(\C#N)C(=O)Nc1ccc(C(F)(F)F)cc1 [teriflunomide, reference compound]
[2]
  Subjects discontinued due to AEs or tolerability related reasons: 2.5%
[3]; Day 1, 2 hours post dose, 12-lead ECG
  Mean heart rate reduction compared to pre-dose (maximum): −1.7 bpm
[3]; Day 1, all had pre-treatment HR <55 bpm
  Subjects with asymptomatic post-dose HR≤40 bpm: none
[4]; week 60
  Average change in scaled ventricular volume from baseline (Δ60V), percentage of ICV: 0.065%
[4]; week 108
  Average change in scaled ventricular volume from baseline (Δ108V), percentage of ICV: 0.124%
[5]; Day 1, ponesimod 20 mg arm, teriflunomide 14 mg arm
  Incidence of treatment-emergent heart rate and rhythm (including hypotension) AESIs on Day 1: 0.4%
[5]; [6]
  AESI effect on heart rate and rhythm (including hypotension) on Day 1: Subjects with at least one AE: 2(0.4) n (%)
  AESI heart rate and rhythm on Day 1, PT: Atrioventricular block first degree: 0 n (%)
  AESI heart rate and rhythm on Day 1, PT: Bradycardia: 0 n (%)
  AESI heart rate and rhythm on Day 1, PT: Bundle branch block left: 0 n (%)
  AESI heart rate and rhythm on Day 1, PT: Bundle branch block right: 0 n (%)
  AESI heart rate and rhythm on Day 1, PT: Defect conduction intraventricular: 0 n (%)
  AESI heart rate and rhythm on Day 1, PT: Electrocardiogram QT prolonged: 1(0.2) n (%)
  AESI heart rate and rhythm on Day 1, PT: Presyncope: 1(0.2) n (%)
  AESI heart rate and rhythm on Day 1, PT: Sinus arrhythmia: 0 n (%)
  AESI heart rate and rhythm on Day 1, PT: Sinus bradycardia: 0 n (%)
[5]; only if serious or severe, ponesimod 20 mg N=565, teriflunomide 14 mg N=566, Safety Set
  Treatment-emergent AESI: Infection: 5(0.9) n (%)
[5]; [7]
  TEAEs leading to premature discontinuation of study drug: Subjects with at least one AE: 34(6.0) n (%)
  TEAEs leading to premature discontinuation, SOC: Blood and lymphatic system disorders: 2(0.4) n (%)
  TEAEs leading to premature discontinuation, SOC: Cardiac disorders: 2(0.4) n (%)
  TEAEs leading to premature discontinuation, SOC: Eye disorders: 0 n (%)
  TEAEs leading to premature discontinuation, SOC: Gastrointestinal disorders: 4(0.7) n (%)
  TEAEs leading to premature discontinuation, SOC: General disorders and administration site conditions: 2(0.4) n (%)
  TEAEs leading to premature discontinuation, SOC: Hepatobiliary disorders: 2(0.4) n (%)
  TEAEs leading to premature discontinuation, SOC: Investigations: 10(1.8) n (%)
  TEAEs leading to premature discontinuation, SOC: Musculoskeletal and connective tissue disorders: 1(0.2) n (%)
  TEAEs leading to premature discontinuation, SOC: Neoplasms benign, malignant and unspecified (incl cysts and polyps): 1(0.2) n (%)
  TEAEs leading to premature discontinuation, SOC: Nervous system disorders: 4(0.7) n (%)
  TEAEs leading to premature discontinuation, SOC: Pregnancy, puerperium and perinatal conditions: 3(0.5) n (%)
  TEAEs leading to premature discontinuation, SOC: Psychiatric disorders: 1(0.2) n (%)
  TEAEs leading to premature discontinuation, SOC: Reproductive system and breast disorders: 1(0.2) n (%)
  TEAEs leading to premature discontinuation, SOC: Respiratory, thoracic and mediastinal disorders: 0 n (%)
  TEAEs leading to premature discontinuation, SOC: Skin and subcutaneous tissue disorders: 2(0.4) n (%)
  TEAEs leading to premature discontinuation, SOC: Social circumstances: 1(0.2) n (%)
  TEAEs leading to premature discontinuation, SOC: Surgical and medical procedures: 1(0.2) n (%)
  TEAEs leading to premature discontinuation, SOC: Vascular disorders: 0 n (%)
  Treatment-emergent AESI: Effect on heart rate and rhythm (including hypotension): 24(4.2) n (%)
  Treatment-emergent AESI: Hepatobiliary disorders/Liver enzyme abnormality: 82(14.5) n (%)
  Treatment-emergent AESI: Herpetic infection: 27(4.8) n (%)
  Treatment-emergent AESI: Hypertension: 51(9.0) n (%)
  Treatment-emergent AESI: Macular edema: 1(0.2) n (%)
  Treatment-emergent AESI: Non-skin malignancy: 1(0.2) n (%)
  Treatment-emergent AESI: Pulmonary events: 15(2.7) n (%)
  Treatment-emergent AESI: Seizure: 1(0.2) n (%)
  Treatment-emergent AESI: Skin malignancy: 1(0.2) n (%)
[5]; [8]
  AESI category hepatobiliary disorders/liver enzyme abnormality: 14.5%
  AESI category hypertension: 9.0%
  AESI category pulmonary events: 2.7%
  Proportion of subjects who experienced at least one SAE: 8.1%
  Proportion of subjects who experienced at least one TEAE: 88.2%
  TEAE: ALT increased: 9.4%
  TEAE: headache: 12.7%
  TEAE: nasopharyngitis: 16.8%
  TEAE: upper respiratory tract infection: 10.4%
  TEAEs leading to premature treatment discontinuation: 6.0%
[5]; [9]
  Subjects with at least one AE: 499(88.2) n (%)
  Subjects with at least one AE leading to study drug discontinuation: 34(6.0) n (%)
  Subjects with at least one Drug-Related AE: 238(42.0) n (%)
  Subjects with at least one Fatal AE: 2(0.4) n (%)
  Subjects with at least one Serious AE: 46(8.1) n (%)
  Subjects with at least one Severe AE: 26(4.6) n (%)
